Assay results reported in patent publication US12624018B1, “Inhibitors of RIPK2 and medical uses thereof” (Odyssey Therapeutics, Inc., priority 2022, dated 2026).
Where two headings read alike, the source gives them in different places.

How the values were obtained:
RIPK2 enzyme = target: T1, RIPK2 enzyme (Homo sapiens, UniProt O43353); assay: RIPK2 inhibition (ADP-Glo Kinase Assay); assay type: biochemical; conditions: RIPK2 5 nM, ATP 150 μM, MBP substrate, read-out: RIPK2 IC50
T1 construct: purchased Carna 09-128
T1 sequence (O43353 1-299 limits assumed): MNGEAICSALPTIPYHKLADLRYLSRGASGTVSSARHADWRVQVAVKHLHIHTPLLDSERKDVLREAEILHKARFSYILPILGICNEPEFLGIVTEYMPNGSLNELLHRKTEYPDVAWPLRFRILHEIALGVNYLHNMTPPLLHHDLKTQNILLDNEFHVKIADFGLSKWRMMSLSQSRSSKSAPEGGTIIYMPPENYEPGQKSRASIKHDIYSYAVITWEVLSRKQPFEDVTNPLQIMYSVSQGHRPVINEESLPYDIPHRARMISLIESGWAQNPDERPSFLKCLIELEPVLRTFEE
In short: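 Human RIPK2 (5 nM) preincubated with compound 30 min at room temperature in 50 mM HEPES pH 7.5, 10 mM MgCl2, 2 mM DTT, 1 mM EGTA, 0.01% Brij-35, 0.05% BSA; native swine MBP as substrate. ADP formed quantified by ADP-Glo luminescence; percent inhibition relative to DMSO and no-enzyme controls.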

human NOD2 signaling = assay: Inhibition of human NOD2 signaling in HEK-Blue-hNOD2 cells (L18-MDP stimulated, SEAP reporter); assay type: cell-based; conditions: NOD2 ligand stimulation, SEAP reporter, read-out: hNOD2 IC50
In short: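 HEK-Blue-hNOD2 cells (HEK293 with NOD2 and SEAP reporter), 12500/well, treated with 10-point 3-fold compound dilutions plus L18-MDP 0.5 ng/mL final, 24 h at 37 °C. Supernatant SEAP read with QUANTI-Blue after 3 h at 620 nm; IC50 by 4-parameter fit vs DMSO±L18-MDP controls.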

[1] = tested on: TNF-alpha secretion in human whole blood; assay: Inhibition of TNF-alpha secretion in human whole blood (IFN-gamma primed, L18-MDP stimulated); assay type: cell-based; conditions: L18-MDP 100 ng/mL, read-out: Human Whole Blood TNFα IC50
Procedure: Materials: Assay medium consisted of RPMI 1640 medium (catalogue number: 11875119) and 10% heat inactivated FBS (Cytvia). U-PLEX Biomarker Assay (cat #K15067L-4) to detect levels of TNF-alpha was purchased from Meso Scale Discovery. Heparinized whole blood from healthy donors/volunteers was obtained through Research Blood Components, LLC.
Test compounds were prepared into a 10 mM DMSO solution and serially diluted into 9 points using a 3-fold dilution in a 96 well plate. A 10× working stock solution of recombinant human IFN-gamma (final concentration of 10 ng/mL) was prepared in assay medium and used to prepare a 10× solution of test compound. 20 μL of 10×IFN-gamma and test compound (or DMSO control) was added to a 96-well plate. 160 μL of heparinized whole blood obtained from healthy donors was dispensed into individual wells of the 96-well plate and placed on a plate shaker (150 rpm) and incubated for 60 min at 37° C. in a CO2 incubator. Subsequently, 20 μL of L18-MDP (final concentration of 100 ng/mL) was added to the appropriate wells and further incubated for 16 hours on a plate shaker (150 rpm) at 37° C. in a CO2 incubator. The final concentration of DMSO was 0.05% (v/v) in all wells. After incubation, 100 μL of DPBS was added per well, mixed by shaking at 500 rpm for 2 minutes, followed by centrifugation (400×g for 10 minutes) and collection of supernatants. TNF-alpha in supernatants was measured using MSD immunoassay (MesoScale Discovery). 4-parametric curve fit was used to determine the test compound concentration that results in 50% reduction of TNF-alpha concentration in supernatant relative to assay controls.

[2] = target: T2, RIPK2 and XIAP protein-protein interaction (Homo sapiens, UniProt O43353); assay: Inhibition of the interaction of RIPK2 with XIAP (NanoBRET in HEK293T cells); assay type: cell-based; conditions: RIPK2 HaloTag / XIAP NanoLuc, read-out: NanoBRET Scaffolding IC50
T2 construct: the N-terminus of full-length RIPK2 was appended with the HaloTag fusion protein; expressed in transfected cells; host or cells: HEK293T
T2 sequence (O43353 whole entry, the tested form may be a part): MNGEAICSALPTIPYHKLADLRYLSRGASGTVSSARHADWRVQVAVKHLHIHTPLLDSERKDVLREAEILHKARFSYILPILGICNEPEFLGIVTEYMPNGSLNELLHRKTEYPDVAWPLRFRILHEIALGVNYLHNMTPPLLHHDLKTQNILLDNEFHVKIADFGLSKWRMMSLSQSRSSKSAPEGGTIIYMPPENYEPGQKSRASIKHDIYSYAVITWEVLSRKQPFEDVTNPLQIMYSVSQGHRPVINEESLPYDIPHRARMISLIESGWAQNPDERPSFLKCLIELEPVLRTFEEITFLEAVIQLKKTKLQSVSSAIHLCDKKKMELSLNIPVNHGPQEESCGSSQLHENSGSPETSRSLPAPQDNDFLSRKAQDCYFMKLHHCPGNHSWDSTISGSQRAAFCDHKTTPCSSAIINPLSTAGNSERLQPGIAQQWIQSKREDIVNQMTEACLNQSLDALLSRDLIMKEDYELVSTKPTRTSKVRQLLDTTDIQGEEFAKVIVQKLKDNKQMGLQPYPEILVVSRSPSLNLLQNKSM
In short: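 HEK293T cells transiently co-transfected with HaloTag-RIPK2 (N-terminal) and XIAP-NanoLuc (C-terminal) full-length fusions, grown 24 h at 37° C. in Opti-MEM with 4% FBS. Compounds tested as 10-point 3-fold dilutions; NanoBRET ratio taken as 618 nm acceptor over 460 nm donor emission.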

[3] = Homo sapiens, HEK-Blue hNOD2, HEK-Blue-hNOD2 cells

| SMILES | IC50 (RIPK2 enzyme) | IC50 (human NOD2 signaling; [3]) | IC50 ([1]; Homo sapiens, 16 h) | IC50 [2] | IC50 (human NOD2 signaling; HEK-Blue-hNOD2 cells) | IC50 ([1]; 16 hours) |
| --- | --- | --- | --- | --- | --- | --- |
| CC(C)(C)n1cc(NC(=O)Cc2ccc(Oc3ccnc4ccc(S(C)(=N)=O)cc34)c(Cl)c2)cn1 (single isomer, unassigned) [Compound 197, N-(1-(tert-butyl)-1H-pyrazol-4-yl)-2-(3-chloro-4-((6-(S-methylsulfonimidoyl)quinolin-4-yl)oxy)phenyl)acetamide] | < 2.5 nM | 4 nM | 24 nM | 93 nM |  |  |
| Cc1cc(C(C)C(=O)Nc2cnn(C(C)(C)C)c2)ccc1Oc1ccnc2ccc(S(C)(=O)=O)cc12 (single isomer, unassigned) [Compound 215, N-(1-(tert-butyl)-1H-pyrazol-4-yl)-2-(3-methyl-4-((6-(methylsulfonyl)quinolin-4-yl)oxy)phenyl)propanamide] | < 2.5 nM | 3.2 nM | 55 nM | 39 nM |  |  |
| Cc1c(Oc2ccnc3ccc(S(=N)(=O)C4CC4)cc23)ccc(CC(=O)Nc2cnn(C(C)(C)C)c2)c1F (single isomer, unassigned) [Compound 441, N-(1-(tert-butyl)-1H-pyrazol-4-yl)-2-(4-((6-(cyclopropanesulfonimidoyl)quinolin-4-yl)oxy)-2-fluoro-3-methylphenyl)acetamide] | < 2.5 nM | 0.2 nM | 6 nM | 8 nM |  |  |
| Cc1c(Oc2ccnc3ccc(S(=N)(=O)C4CC4)cc23)ccc(CC(=O)Nc2cnn(C(C)(C)C)c2)c1F (single isomer, unassigned) [Compound 442, N-(1-(tert-butyl)-1H-pyrazol-4-yl)-2-(4-((6-(cyclopropanesulfonimidoyl)quinolin-4-yl)oxy)-2-fluoro-3-methylphenyl)acetamide] | < 2.5 nM |  |  | 3 nM | 0.2 nM | 7 nM |
| Cc1cc(CC(=O)Nc2cnn(C(C)(C)C)c2)ccc1Oc1ccnc2ccc(S(=N)(=O)C3CC3)cc12 (single isomer, unassigned) [Compound 543, N-(1-(tert-butyl)-1H-pyrazol-4-yl)-2-(4-((6-(cyclopropanesul-fonimidoyl)quinolin-4-yl)oxy)-3-methylphenyl) acetamide] | < 2.5 nM | 1.2 nM | 3 nM | 77.5 nM |  |  |
| Cc1cc(CC(=O)Nc2cnn(C(C)(C)C)c2)ccc1Oc1ccnc2ccc(S(=N)(=O)C3CC3)cc12 (single isomer, unassigned) [Compound 544, N-(1-(tert-butyl)-1H-pyrazol-4-yl)-2-(4-((6-(cyclopropanesul-fonimidoyl)quinolin-4-yl)oxy)-3-methylphenyl) acetamide] | < 2.5 nM |  |  | 123 nM | 2 nM | 4.5 nM |
| CCS(=N)(=O)c1ccc2nccc(Oc3ccc(CC(=O)Nc4cnn(C(C)(C)C)c4)cc3C)c2c1 (single isomer, unassigned) [Compound 545, N-(1-(tert-butyl)-1H-pyrazol-4-yl)-2-(4-((6-(ethylsulfonimidoyl)quinolin-4-yl)oxy)-3-methylphenyl) acetamide] | < 2.5 nM | 1.8 nM | 5.9 nM | 184 nM |  |  |
| CCS(=N)(=O)c1ccc2nccc(Oc3ccc(CC(=O)Nc4cnn(C(C)(C)C)c4)cc3C)c2c1 (single isomer, unassigned) [Compound 546, N-(1-(tert-butyl)-1H-pyrazol-4-yl)-2-(4-((6-(ethylsulfonimidoyl)quinolin-4-yl)oxy)-3-methylphenyl) acetamide] | < 2.5 nM |  |  | 204 nM | 1.4 nM | 4 nM |
| COc1ccc2ncnc(Oc3ccc(CC(=O)Nc4cnn(C(C)(C)C)c4)c(F)c3)c2c1 [Compound 8, N-(1-(tert-butyl)-1H-pyrazol-4-yl)-2-(2-fluoro-4-((6-methoxy-quinazolin-4-yl)oxy)phenyl) acetamide] | 7.6 nM | 11.4 nM | 103 nM | 6 nM |  |  |
| CCS(=O)(=O)c1ccc2nccc(Oc3cc(F)c(CC(=O)Nc4cnn(C(C)(C)C)c4)cc3C)c2c1 [Compound 306, N-(1-(tert-butyl)-1H-pyrazol-4-yl)-2-(4-((6-(ethylsulfonyl)quinolin-4-yl)oxy)-2-fluoro-5-methylphenyl)acetamide] | < 2.5 nM | 1.3 nM | 8 nM |  |  |  |
| Cc1cc(CC(=O)Nc2cnn(C(C)(C)C)c2)ccc1Oc1ccnc2ccc(CS(C)(=O)=O)cc12 [Compound 560, N-(1-(tert-butyl)-1H-pyrazol-4-yl)-2-(3-methyl-4-((6-((methylsulfonyl)methyl)quinolin-4-yl)oxy)phenyl)acetamide] | < 2.5 nM | 8.9 nM |  | 301 nM |  |  |
| Cc1c(Oc2ccnc3ccc(CS(C)(=O)=O)cc23)cc(F)c(CC(=O)Nc2cnn(C(C)(C)C)c2)c1F [Compound 562, N-(1-(tert-butyl)-1H-pyrazol-4-yl)-2-(2,6-difluoro-3-methyl-4-((6-((methylsulfonyl)methyl)quinolin-4-yl)oxy)phenyl)acetamide] | < 2.5 nM | 1.2 nM |  | 61.1 nM |  |  |
| Cc1cc(CC(=O)Nc2cnn(C(C)(C)C)c2)c(F)cc1Oc1ccnc2ccc(CC(N)=O)cc12 [Compound 566, 2-(4-((6-(2-amino-2-oxoethyl)quinolin-4-yl)oxy)-2-fluoro-5-methylphenyl)-N-(1-(tert-butyl)-1H-pyrazol-4-yl)acetamide] | < 2.5 nM | 11.1 nM |  | 459 nM |  |  |
| Cc1cc(CC(=O)Nc2cnn(C(C)(C)C)c2)c(F)cc1Oc1ccnc2ccc(C(C)(C)C(N)=O)cc12 [Compound 568, 2-(4-(4-(2-((1-(tert-butyl)-1H-pyrazol-4-yl)amino)-2-oxoethyl)-5-fluoro-2-methylphenoxy)quinolin-6-yl)-2-methylpropanamide] | < 2.5 nM | 24.4 nM |  | 179 nM |  |  |
| Cc1cc(CC(=O)Nc2cnn(C(C)(C)C)c2)c(F)cc1Oc1ccnc2ccc(C(F)(F)C(N)=O)cc12 [Compound 572, 2-(4-(4-(2-((1-(tert-butyl)-1H-pyrazol-4-yl)amino)-2-oxoethyl)-5-fluoro-2-methylphenoxy)quinolin-6-yl)-2,2-difluoroacetamide] | < 2.5 nM | 1.1 nM |  | 37.2 nM |  |  |
| CNC(=O)c1cc2c(Oc3c(C)cc(CC(=O)Nc4cnn(C(C)(C)C)c4)cc3C)ccnc2cc1F [Compound 582, 4-(4-(2-((1-(tert-butyl)-1H-pyrazol-4-yl)amino)-2-oxoethyl)-2,6-dimethylphenoxy)-7-fluoro-N-methylquinoline-6-carboxamide] | < 2.5 nM | 0.6 nM |  | 36.3 nM |  |  |
| [2H]C([2H])([2H])NC(=O)c1cc2c(Oc3c(C)cc(CC(=O)Nc4cnn(C(C)(C)C)c4)cc3C)ccnc2cc1F [Compound 583, 4-(4-(2-((1-(tert-butyl)-1H-pyrazol-4-yl)amino)-2-oxoethyl)-2,6-dimethylphenoxy)-7-fluoro-N-(methyl-d3)quinoline-6-carboxamide] | < 2.5 nM | 1.2 nM |  | 42.4 nM |  |  |
| Cc1cc(CC(=O)Nc2cnn(C(C)(C)C)c2)cc(Cl)c1Oc1ccnc2cc(F)c(C(N)=O)cc12 [Compound 584, 4-(4-(2-((1-(tert-butyl)-1H-pyrazol-4-yl)amino)-2-oxoethyl)-2-chloro-6-methylphenoxy)-7-fluoroquinoline-6-carboxamide] | < 2.5 nM | 1.3 nM |  | 44.6 nM |  |  |
| CNC(=O)c1cc2c(Oc3c(C)cc(CC(=O)Nc4cnn(C(C)(C)C)c4)cc3Cl)ccnc2cc1F [Compound 585, 4-(4-(2-((1-(tert-butyl)-1H-pyrazol-4-yl)amino)-2-oxoethyl)-2-chloro-6-methylphenoxy)-7-fluoro-N-methylquinoline-6-carboxamide] | < 2.5 nM | 0.9 nM |  | 29.3 nM |  |  |
